Reference: patent publication US20220073495A1 (priority 2020, published 2022)
pIC50: −log10 of the molar value. Like-named read-outs stand apart in the source and are kept apart here.

Experiments:
[1] = tested on: M1 to M2 splicing; assay type: cell-based, influenza virus (WSN); conditions: 1 μM or 2.5 μM, WSN MOI 2 for 8 h
[2] = tested on: viral M mRNA; experiment: smRNA-FISH of M mRNA in WSN-infected cells; assay type: cell-based, influenza virus (WSN); conditions: 2.5 μM, WSN MOI 2 for 8 h
[3] = tested on: A/Panama/99 (H3N2); assay type: cell-based, influenza A virus
[4] = tested on: cellular RNAs; experiment: Cell fractionation and RNAseq of poly(A) RNA; assay type: cell-based, human; conditions: 2.5 μM, 9 hours, cutoff 1.5-fold
[5] = tested on: A549 cells; experiment: MTT cytotoxicity assay
[6] = tested on: HA mRNA; experiment: smRNA-FISH of HA mRNA in WSN-infected cells; assay type: cell-based, influenza virus (WSN); conditions: 2.5 μM, WSN MOI 2 for 8 h
[7] = tested on: A/Vietnam/1203/04 (H5N1); assay type: cell-based, influenza A virus
[8] = tested on: A/WSN/33; experiment: microbe, parasite or virus in culture; assay type: cell-based, influenza virus
[9] = tested on: A/WSN/33; assay type: cell-based, influenza virus
[10] = tested on: A/WSN/33 (H1N1); assay type: cell-based, influenza A virus
[11] = tested on: NS mRNA; experiment: smRNA-FISH of NS mRNA in WSN-infected cells; assay type: cell-based, influenza virus (WSN); conditions: 2.5 μM, WSN MOI 2 for 8 h
[12] = tested on: bulk cellular poly(A) RNA; experiment: RNA-FISH of poly(A) RNA in uninfected cells; assay type: cell-based, Human; conditions: 2.5 μM
[13] = tested on: viral proteins (M1, M2, NA, HA); assay type: cell-based, A/WSN33
[14] = tested on: NS1 to NS2 splicing; experiment: qPCR of relative ratio of NS2 to NS1 mRNAs; assay type: cell-based, influenza virus (WSN); conditions: 1 μM or 2.5 μM, WSN MOI 2 for 8 h
[15] = in vitro; conditions: human
[16] = tested on: cellular GAPDH mRNA; experiment: smRNA-FISH of GAPDH mRNA in uninfected cells; assay type: cell-based, Human; conditions: 2.5 μM
[17] = tested on: primary human bronchial epithelial cells (HBEC); experiment: Cell viability of primary human bronchial epithelial cells (CellTiter-Glo); assay type: cell-based; conditions: 24 h
Method: FIG. 38 depicts compound 2 inhibiting influenza virus replication in primary human bronchial epithelial cells at non-toxic concentrations. […] (B) Cell viability was monitored at 24 h after treatment with 0.1% DMSO or compound 2 at the depicted concentrations using CellTiter-Glo. Three independent experiments were performed.

[18] = tested on: cellular ATP levels; experiment: Cellular ATP levels (CellTiter-Glo); assay type: cell-based; conditions: 2.5 μM, 24 h
Method: FIG. 30 depicts cellular ATP levels measured in cells treated with 0.1% DMSO or 2.5 μM of compound 2 at 24 h. Four independent experiments were performed and each contained 6 technical replicates.
ATP was measured by luminescence using the CellTiter-Glo kit (Promega) according to the manufacturer's instructions.

[19] = tested on: A549 cells; conditions: human
[20] = tested on: viral M mRNA; experiment: High-throughput smRNA-FISH screen for viral M mRNA processing and nuclear export; assay type: cell-based, influenza A/WSN/33 virus; conditions: 2.5 μM, A/WSN/33
[21] = unidentified influenza virus, WSN, A549, 24 h, read-out: WSN IC50, A549 cells, A/WSN/33 MOI 0.01, 24 h post infection, NP-positive cells
[22] = unidentified influenza virus, WSN, A549, 24 h, read-out: WSN IC90, A549 cells, A/WSN/33 MOI 0.01, 24 h post infection, NP-positive cells

For `O=C(CSc1nc2ccccc2[nH]1)Nc1ccc(Br)cn1` [Compound 2, 2-((1H-benzo[d]imidazol-2-yl)thio)-N-(5-bromopyridin-2-yl)acetamide], the “M1 to M2 splicing (relative ratio of M2 to M1 mRNAs)” value [1] was “No effect”, the “nuclear export of viral M mRNA” value [2] was “robustly inhibited” and the “total M mRNA fluorescence intensity” value [2] was “did not alter”. For the same compound, the “IC50 in plaque assay relative to NP assay (less)” value [3] was roughly 2 fold, the “viral replication (viral titer)” value [3] was “inhibited” and the mRNAs down-regulated [4] was 829 mRNAs. For the same compound, the “mRNAs more cytoplasmic compared to control cells” value [4] was 98 mRNAs, the “mRNAs preferentially retained in the nucleus” value [4] was 96 mRNAs and the mRNAs up-regulated [4] was 103 mRNAs. The “mRNAs with altered nuclear to cytoplasmic distribution” value [4] was 194 mRNAs, the “24 h MTT CC10” value ([5]; 24 h, concurrent with immunostaining) was 5.839 µM and the “cell viability at concentrations inhibiting replication” value ([5]; MTT, 24 h or 48 h) was “did not significantly alter”. For the same compound, the “nuclear export of HA mRNA” value [6] was “robustly inhibited”, the “viral replication (viral titer)” value ([7]; A549 cells, MOI 0.01, 24 h) was “inhibited” and the “IC50 in plaque assay relative to NP assay (less)” value ([7]; A/Vietnam/1203/04, plaque assay vs NP assay) was roughly 2 fold. The pIC50 [8, 21] was 5.50, the IC90 [8, 22] was 16.9 µM and the “viral replication in primary human bronchial epithelial cells” value [9] was “inhibited”. For the same compound, the “IC50 in plaque assay relative to NP assay (less)” value [10] was roughly 2 fold, the “viral replication (viral titer)” value [10] was “inhibited” and the “nuclear retention of NS mRNA” value [11] was “weak nuclear retention”. For the same compound, the “total levels of the NS mRNA” value [11] was “not altered”, the “poly(A) RNA nuclear to cytoplasmic ratio” value [12] was “slightly decreased” and the “total levels of bulk cellular poly(A) RNA” value [12] was “did not affect”. For the same compound, the “levels of the viral M1 and M2 proteins as well as NA and HA proteins” value [13] was “decrease”, the “NS1 to NS2 splicing” value [14] was “slightly inhibited” and the CC50 at 24 h ([15]; A549 cells) was greater than 50 µM. For the same compound, the “GAPDH mRNA nuclear to cytoplasmic distribution” value [16] was “not affected”, the “total levels of cellular GAPDH mRNA” value [16] was “slightly decreased” and the “cell viability of HBEC” value [17] was “non-toxic”. The “cellular ATP levels as a surrogate for cytotoxicity” value [18] was “no significant change”.

In the case of `CCn1c(SCC(=O)Nc2ccc(Br)cn2)nc2ccccc21` [Compound 18], the pIC50 [8, 21] was 4.42, the IC90 [8, 22] was greater than 50 µM and the “24 h MTT CC10” value [19] was 47.499 µM. The CC50 [15] was greater than 50 µM.

In the case of `C=CCn1c(SCC(=O)Nc2ccc(Br)cn2)nc2ccccc21` [Compound 19], the pIC50 [8, 21] was less than 4.30, the IC90 [8, 22] was greater than 50 µM and the “24 h MTT CC10” value [19] was 18.984 µM. It also gave a CC50 [15] greater than 50 µM.

With `Cc1ccc(NC(=O)CSc2nc3ccccc3[nH]2)nc1` [Compound 20] the pIC50 ([8]; read-out: WSN IC50, A549 cells, A/WSN/33 MOI 0.01, 24 h post infection, NP-positive cells) was less than 4.30, the IC90 ([8]; read-out: WSN IC90, A549 cells, A/WSN/33 MOI 0.01, 24 h post infection, NP-positive cells) was greater than 50 µM and the “24 h MTT CC10” value [19] was 7.855 µM. It also gave a CC50 [15] greater than 50 µM.

With `COc1ccc(NC(=O)CSc2nc3ccccc3[nH]2)nc1` [Compound 21] the pIC50 [8, 21] was 4.76, the IC90 [8, 22] was 45.4 µM and the “24 h MTT CC10” value [19] was 4.69 µM. For the same compound, the CC50 [15] was greater than 50 µM.

For `O=C(CSc1nc2ccccc2[nH]1)Nc1ccc(F)cn1` [Compound 22], the pIC50 [8, 21] was 4.36, the IC90 [8, 22] was greater than 50 µM and the “24 h MTT CC10” value [19] was 31.688 µM. For the same compound, the CC50 [15] was greater than 50 µM.

In the case of `Brc1ccc(CSc2nc3ccccc3[nH]2)nc1` [Compound 23], the pIC50 [8, 21] was less than 4.30, the IC90 [8, 22] was greater than 50 µM and the “24 h MTT CC10” value [19] was 37.461 µM. The CC50 [15] was greater than 50 µM.

For `O=C(CSc1nc2cc(F)ccc2[nH]1)Nc1ccc(Br)cn1` [Compound 27], the pIC50 [8, 21] was 4.79, the IC90 [8, 22] was 18.2 µM and the “24 h MTT CC10” value [19] was 2.905 µM. For the same compound, the CC50 [15] was greater than 50 µM.

In the case of `COc1ccc2[nH]c(SCC(=O)Nc3ccc(Br)cn3)nc2c1` [Compound 28], the pIC50 [8, 21] was 4.33, the IC90 [8, 22] was 50 µM and the “24 h MTT CC10” value [19] was 7.52 µM. For the same compound, the CC50 [15] was greater than 50 µM.

With `OC[C@H]1O[C@@H](n2cnc3cc(Cl)c(Cl)cc32)[C@H](O)[C@@H]1O` [DRB, 5,6-dichloro-1-β-D-ribofuranosylbenzimidazole] the “viral M mRNA nuclear retention” value [20] was “positive control for viral M mRNA nuclear retention”.

For `COc1ccc(-n2c(SC(C)C(=O)Nc3ccc(C)cc3Cl)nc3ccccc32)cc1` (stereo not shown) [JMN3-003, reference compound], the “nuclear export of viral M mRNA” value [2] was “does not inhibit” and the “total M mRNA fluorescence intensity” value [2] was “decreased”.

In the case of ivermectin [reference compound], the “cytotoxicity (cell viability)” value ([5]; 48 h, MTT, concentrations used for compound 2) was “positive control for cytotoxicity”.
